Measurements reported in the NIST ThermoML archive (doi:10.1021/je025657+).
“And” between values parts separate entries of the source, which are not always exact repeats. Identical values can stand only once.

COC(F)(F)F [trifluoromethoxymethane]
Details | mass density [kg/m3]
240 K, 17 kPa, Gas | 0.84
240 K, 25.1 kPa, Gas | 1.25
240 K, 36.9 kPa, Gas | 1.87
240 K, 517.1 kPa, Liquid | 1262.64
240 K, 1011 kPa, Liquid | 1263.83
240 K, 1516.2 kPa, Liquid | 1265.03
240 K, 2014.7 kPa, Liquid | 1266.21
240 K, 2517.3 kPa, Liquid | 1267.38
240 K, 3024.1 kPa, Liquid | 1268.56
240 K, 3529.6 kPa, Liquid | 1269.72
240 K, 4031 kPa, Liquid | 1270.86
240 K, 4515.5 kPa, Liquid | 1271.95
240 K, 5038.9 kPa, Liquid | 1273.12
240 K, 5511.8 kPa, Liquid | 1274.16
240 K, 6024.7 kPa, Liquid | 1275.29
240 K, 6511.7 kPa, Liquid | 1276.35
240 K, 6981.1 kPa, Liquid | 1277.36
250 K, 19.2 kPa, Gas | 0.91
250 K, 28.3 kPa, Gas | 1.34
250 K, 41.7 kPa, Gas | 1.98
250 K, 61.2 kPa, Gas | 2.94
250 K, 89.4 kPa, Gas | 4.33
250 K, 505.1 kPa, Liquid | 1236.18
250 K, 1008.8 kPa, Liquid | 1237.55
250 K, 1508.8 kPa, Liquid | 1238.91
250 K, 2020.1 kPa, Liquid | 1240.28
250 K, 2517.2 kPa, Liquid | 1241.59
250 K, 3037 kPa, Liquid | 1242.95
250 K, 3530.8 kPa, Liquid | 1244.22
250 K, 4030.5 kPa, Liquid | 1245.49
250 K, 4537.2 kPa, Liquid | 1246.78
250 K, 5042.6 kPa, Liquid | 1248.05
250 K, 5550.6 kPa, Liquid | 1249.31
250 K, 6026.5 kPa, Liquid | 1250.48
250 K, 6529.6 kPa, Liquid | 1251.71
250 K, 6975.1 kPa, Liquid | 1252.79
260 K, 18.7 kPa, Gas | 1.11
260 K, 27.6 kPa, Gas | 1.53
260 K, 40.7 kPa, Gas | 2.15
260 K, 59.9 kPa, Gas | 3.03
260 K, 87.8 kPa, Gas | 4.4
260 K, 127.7 kPa, Gas | 6.4
260 K, 507.8 kPa, Liquid | 1209.12
260 K, 1009.3 kPa, Liquid | 1210.7
260 K, 1499.4 kPa, Liquid | 1212.21
260 K, 2004.5 kPa, Liquid | 1213.76
260 K, 2515.8 kPa, Liquid | 1215.3
260 K, 3012.1 kPa, Liquid | 1216.77
260 K, 3527.2 kPa, Liquid | 1218.29
260 K, 4018 kPa, Liquid | 1219.71
260 K, 4522 kPa, Liquid | 1221.16
260 K, 5039.1 kPa, Liquid | 1222.63
260 K, 5512.3 kPa, Liquid | 1223.96
260 K, 6040.8 kPa, Liquid | 1225.42
260 K, 6546.9 kPa, Liquid | 1226.81
260 K, 6987.4 kPa, Liquid | 1227.99
270 K, 23.7 kPa, Gas | 1.1
270 K, 35 kPa, Gas | 1.6
270 K, 51.5 kPa, Gas | 2.35
270 K, 75.7 kPa, Gas | 3.49
270 K, 110.6 kPa, Gas | 5.15
270 K, 160.6 kPa, Gas | 7.63
270 K, 500.8 kPa, Liquid | 1180.45
270 K, 1001.8 kPa, Liquid | 1182.27
270 K, 1515.4 kPa, Liquid | 1184.1
270 K, 1999.2 kPa, Liquid | 1185.81
270 K, 2500.7 kPa, Liquid | 1187.53
270 K, 3017 kPa, Liquid | 1189.29
270 K, 3484.3 kPa, Liquid | 1190.86
270 K, 4038.2 kPa, Liquid | 1192.68
270 K, 4513.3 kPa, Liquid | 1194.24
270 K, 5047.2 kPa, Liquid | 1195.96
270 K, 5542.1 kPa, Liquid | 1197.53
270 K, 6036.1 kPa, Liquid | 1199.08
270 K, 6529.6 kPa, Liquid | 1200.61
270 K, 6973.6 kPa, Liquid | 1201.96
280 K, 27.5 kPa, Gas | 1.21
280 K, 40.5 kPa, Gas | 1.79
280 K, 59.6 kPa, Gas | 2.61
280 K, 87.6 kPa, Gas | 3.89
280 K, 128.3 kPa, Gas | 5.75
280 K, 186.4 kPa, Gas | 8.53
280 K, 269 kPa, Gas | 12.52
280 K, 454.4 kPa, Liquid | 1150.61
280 K, 985.2 kPa, Liquid | 1152.87
280 K, 1507.7 kPa, Liquid | 1155.03
280 K, 1992.9 kPa, Liquid | 1157.02
280 K, 2510.8 kPa, Liquid | 1159.1
280 K, 3011.5 kPa, Liquid | 1161.06
280 K, 3522.2 kPa, Liquid | 1163.04
280 K, 4037.2 kPa, Liquid | 1164.99
280 K, 4483.8 kPa, Liquid | 1166.68
280 K, 4942.1 kPa, Liquid | 1168.36
280 K, 5533.2 kPa, Liquid | 1170.51
280 K, 5977.4 kPa, Liquid | 1172.09
280 K, 6516.6 kPa, Liquid | 1173.99
280 K, 7008.7 kPa, Liquid | 1175.7
290 K, 18.9 kPa, Gas | 0.76
290 K, 30.4 kPa, Gas | 1.28
290 K, 50.3 kPa, Gas | 2.25
290 K, 74.2 kPa, Gas | 3.26
290 K, 109 kPa, Gas | 4.83
290 K, 159.4 kPa, Gas | 7.09
290 K, 232.8 kPa, Gas | 10.52
290 K, 338.9 kPa, Gas | 15.78
290 K, 493.5 kPa, Liquid | 1119.5
290 K, 976.7 kPa, Liquid | 1121.93
290 K, 979.3 kPa, Liquid | 1121.87
290 K, 1475.8 kPa, Liquid | 1124.36
290 K, 1999.9 kPa, Liquid | 1126.86
290 K, 2466.6 kPa, Liquid | 1129.04
290 K, 2989.9 kPa, Liquid | 1131.43
290 K, 3492.2 kPa, Liquid | 1133.73

Liquid
Details | mass density
240 K | 1261.55 kg/m3 and 1261.54 kg/m3
250 K | 1235.07 kg/m3
260 K | 1208.02 kg/m3
270 K | 1179.44 kg/m3
280 K | 1150.07 kg/m3
